# Measurements published in BindingDB's records for doi:10.1021/ml300330m (Glaxosmithkline, 2013).
# Experiment: Inhibition of PI3Kbeta human in PTEN wild type HCC1954 cells assessed as cell growth inhibition
row,SMILES,EC50 [µM]
1,Cc1nn2c(O)cc(C3CCOCC3)nc2c1Cc1cccc(C(F)(F)F)c1C,25.1
2,Cc1nn2c(O)cc(N3CCOCC3)nc2c1Cc1cccc2ccccc12,31.6
3,Cc1nn2c(NC(N)=O)cc(N3CCOCC3)nc2c1Cc1cccc(C(F)(F)F)c1C,12.6

# Now from value to compound:
row,EC50 [µM],SMILES
1,15.8,Cc1nn2c(O)cc(N3CCOCC3)nc2c1Cc1cccc(C(F)(F)F)c1C
2,15.8,Cc1c(Cc2cnn3c(O)cc(N4CCOCC4)nc23)cccc1C(F)(F)F
3,12.6,Cc1nn2c(N)cc(N3CCOCC3)nc2c1Cc1cccc(C(F)(F)F)c1C
